Reference: patent publication US20250042916A1 (ACONCAGUA BIO, INC., priority 2023, published 2025)

Biological target: human calcitonin receptor (CTR) and RAMP3 (AMY3) in COS-7 cells (Homo sapiens, UniProt O60896+P30988)
Assay: Amylin Receptor cAMP Assay I
Assay type: cell-based
Conditions: values marked *: Amylin Receptor cAMP Assay I; COS-7/AMY3 cells; read-out: Amylin Receptor cAMP Stimulation Activity: EC50
Summary of the method: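 COS-7 cells stably co-expressing human CTR and RAMP3 (AMY3) were stimulated with serially diluted compounds (4-fold) in DPBS with 0.5 mM IBMX and 0.1% BSA for 30 min at 37 °C, 1000 cells/well. cAMP accumulation was measured by HTRF (cAMP-d2/anti-cAMP cryptate, 1 h RT) read at 665/615 nm.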

human calcitonin receptor (CTR) and RAMP3 (AMY3) in COS-7 cells, sequence (P30988 25-474): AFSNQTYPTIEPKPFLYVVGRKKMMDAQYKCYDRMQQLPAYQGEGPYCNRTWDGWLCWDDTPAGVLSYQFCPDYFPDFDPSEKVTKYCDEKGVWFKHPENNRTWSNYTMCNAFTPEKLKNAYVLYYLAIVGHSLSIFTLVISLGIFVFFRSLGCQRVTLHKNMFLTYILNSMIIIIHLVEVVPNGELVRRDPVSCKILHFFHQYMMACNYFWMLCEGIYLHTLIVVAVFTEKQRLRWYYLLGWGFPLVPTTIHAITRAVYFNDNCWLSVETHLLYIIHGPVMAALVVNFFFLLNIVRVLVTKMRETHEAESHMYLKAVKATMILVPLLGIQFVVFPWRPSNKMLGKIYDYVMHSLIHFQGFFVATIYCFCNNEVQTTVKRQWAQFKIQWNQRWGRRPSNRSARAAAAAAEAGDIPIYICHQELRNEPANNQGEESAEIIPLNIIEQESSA
human calcitonin receptor (CTR) and RAMP3 (AMY3) in COS-7 cells, sequence (O60896 24-148): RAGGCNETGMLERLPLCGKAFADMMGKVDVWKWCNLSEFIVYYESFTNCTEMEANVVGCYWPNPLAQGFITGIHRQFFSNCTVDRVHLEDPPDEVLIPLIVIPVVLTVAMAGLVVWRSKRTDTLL

EC50 [nM]	Structure (SMILES)
1910	Cc1ccn(CCc2nc(CC(C)C)c(C(N)=O)c(-c3ccc(C(=O)NCc4ccc(F)c(F)c4)s3)c2-c2nnc(C)o2)n1 [Compound 183, 4-(5-((3,4-difluorobenzyl)carbamoyl)thiophen-2-yl)-2-isobutyl-5-(5-methyl-1,3,4-oxadiazol-2-yl)-6-(2-(3-methyl-1H-pyrazol-1-yl)ethyl)nicotinamide]
1070	Cc1nnc(-c2c(CCc3cnn(C)c3)nc(CC(C)C)c(C(N)=O)c2-c2ccc(C(=O)NCc3ccc(F)c(F)c3)s2)o1 [Compound 184, 4-(5-((3,4-difluorobenzyl)carbamoyl)thiophen-2-yl)-2-isobutyl-5-(5-methyl-1,3,4-oxadiazol-2-yl)-6-(2-(1-methyl-1H-pyrazol-4-yl)ethyl)nicotinamide]
507	Cc1nnc(-c2c(CC(O)c3ccc(F)cc3)nc(CC(C)C)c(C(N)=O)c2-c2ccc(C(=O)N[C@@H]3CCc4ccccc43)s2)o1 (stereo partly drawn) [Compound 185, 4-(5-(((R)-2,3-dihydro-1H-inden-1-yl)carbamoyl)thiophen-2-yl)-6-(2-(4-fluorophenyl)-2-hydroxyethyl)-2-isobutyl-5-(5-methyl-1,3,4-oxadiazol-2-yl)nicotinamide]
123	COC(Cc1nc(CC(C)C)c(C(N)=O)c(-c2ccc(C(=O)NCc3ccc(F)c(F)c3)s2)c1-c1nnc(C)o1)c1ccc(F)cc1 (stereo not drawn) [Compound 186, 4-(5-((3,4-difluorobenzyl)carbamoyl)thiophen-2-yl)-6-(2-(4-fluorophenyl)-2-methoxyethyl)-2-isobutyl-5-(5-methyl-1,3,4-oxadiazol-2-yl)nicotinamide]
99.3	Cc1nnc(-c2c(CC(F)c3ccc(F)cc3)nc(CC(C)C)c(C(N)=O)c2-c2ccc(C(=O)N[C@@H]3CCc4ccccc43)s2)o1 (stereo partly drawn) [Compound 187, 4-(5-(((R)-2,3-dihydro-1H-inden-1-yl)carbamoyl)thiophen-2-yl)-6-(2-fluoro-2-(4-fluorophenyl)ethyl)-2-isobutyl-5-(5-methyl-1,3,4-oxadiazol-2-yl)nicotinamide]
> 1000	Cc1nnc(-c2c(CCC(F)F)nc(CC(C)C)c(C(N)=O)c2-c2ccc(C(=O)NCc3ccc(F)c(F)c3)s2)o1 [Compound 189, 4-(5-((3,4-difluorobenzyl)carbamoyl)thiophen-2-yl)-6-(3,3-difluoropropyl)-2-isobutyl-5-(5-methyl-1,3,4-oxadiazol-2-yl)nicotinamide]
1080	Cc1nnc(-c2c(CC(C)c3ccc(F)cc3)nc(CC(C)C)c(C(N)=O)c2-c2ccc(C(=O)N[C@@H]3CCc4ncccc43)s2)o1 (stereo partly drawn) [Compound 191, 4-(5-(((R)-6,7-dihydro-5H-cyclopenta[b]pyridin-5-yl)carbamoyl)thiophen-2-yl)-6-(2-(4-fluorophenyl)propyl)-2-isobutyl-5-(5-methyl-1,3,4-oxadiazol-2-yl)nicotinamide]
> 1000	Cc1nnc(-c2c(CC3CC3(F)F)nc(CC(C)C)c(C(N)=O)c2-c2ccc(C(=O)NCc3ccc(F)c(F)c3)s2)o1 (stereo not drawn) [Compound 192, 4-(5-((3,4-difluorobenzyl)carbamoyl)thiophen-2-yl)-6-((2,2-difluorocyclopropyl)methyl)-2-isobutyl-5-(5-methyl-1,3,4-oxadiazol-2-yl)nicotinamide]
3550	Cc1nnc(-c2c(CC3CC(F)(F)C3)nc(CC(C)C)c(C(N)=O)c2-c2ccc(C(=O)NCc3ccc(F)c(F)c3)s2)o1 [Compound 193, 4-(5-((3,4-difluorobenzyl)carbamoyl)thiophen-2-yl)-6-((3,3-difluorocyclobutyl)methyl)-2-isobutyl-5-(5-methyl-1,3,4-oxadiazol-2-yl)nicotinamide]
3400	Cc1nnc(-c2c(C34CC(C(F)(F)F)(C3)C4)nc(CC(C)C)c(C(N)=O)c2-c2ccc(C(=O)NCc3ccc(F)c(F)c3)s2)o1 [Compound 194, 4-(5-((3,4-difluorobenzyl)carbamoyl)thiophen-2-yl)-2-isobutyl-5-(5-methyl-1,3,4-oxadiazol-2-yl)-6-(3-(trifluoromethyl)bicyclo[1.1.1]pentan-1-yl)nicotinamide]
39900	Cc1ccc(CCc2nc(CC(C)C)c(C(N)=O)c(-c3ccc(C(=O)N[C@@H]4CCc5ncccc54)s3)c2-c2nnc(C)o2)nc1 [Compound 195, (R)-4-(5-((6,7-dihydro-5H-cyclopenta[b]pyridin-5-yl)carbamoyl)thiophen-2-yl)-2-isobutyl-5-(5-methyl-1,3,4-oxadiazol-2-yl)-6-(2-(5-methylpyridin-2-yl)ethyl)nicotinamide]
279	Cc1nnc(-c2c(CCC3CCOCC3)nc(CC(C)C)c(C(N)=O)c2-c2cc3ccnc(N[C@@H]4CCc5ncccc54)c3s2)o1 [Compound 196, (R)-4-(7-((6,7-dihydro-5H-cyclopenta[b]pyridin-5-yl)amino)thieno[2,3-c]pyridin-2-yl)-2-isobutyl-5-(5-methyl-1,3,4-oxadiazol-2-yl)-6-(2-(tetrahydro-2H-pyran-4-yl)ethyl)nicotinamide]
229	COc1cccc2c1CC[C@H]2Nc1nccc2cc(-c3c(C(N)=O)c(CC(C)C)nc(CCC4CCOCC4)c3-c3ncc(C)o3)sc12 [Compound 198, (R)-2-isobutyl-4-(7-((4-methoxy-2,3-dihydro-1H-inden-1-yl)amino)thieno[2,3-c]pyridin-2-yl)-5-(5-methyloxazol-2-yl)-6-(2-(tetrahydro-2H-pyran-4-yl)ethyl)nicotinamide]
> 1000	CCc1nc(CC(C)C)c(C(N)=O)c(-c2ccc(C(=O)NCc3ccc(F)c(F)c3)cc2)c1-c1nnc(C)o1 [Compound 199, 4-(4-((3,4-difluorobenzyl)carbamoyl)phenyl)-6-ethyl-2-isobutyl-5-(5-methyl-1,3,4-oxadiazol-2-yl)nicotinamide]
273	Cc1nnc(-c2c(CCc3ccc(F)cc3)nc(CC(C)C)c(C(N)=O)c2-c2cc3ccnc(NCc4ccccn4)c3s2)o1 [Compound 200, 6-(4-fluorophenethyl)-2-isobutyl-5-(5-methyl-1,3,4-oxadiazol-2-yl)-4-(7-((pyridin-2-ylmethyl)amino)thieno[2,3-c]pyridin-2-yl)nicotinamide]
381	Cc1nnc(-c2c(CCc3ccc(F)cc3)nc(CC(C)C)c(C(N)=O)c2-c2cc3ccnc(NCc4cccnc4)c3s2)o1 [Compound 201, 6-(4-fluorophenethyl)-2-isobutyl-5-(5-methyl-1,3,4-oxadiazol-2-yl)-4-(7-((pyridin-3-ylmethyl)amino)thieno[2,3-c]pyridin-2-yl)nicotinamide]
242	Cc1nnc(-c2c(CCc3ccc(F)cc3)nc(CC(C)C)c(C(N)=O)c2-c2cc3ccnc(NCc4ccncc4)c3s2)o1 [Compound 202, 6-(4-fluorophenethyl)-2-isobutyl-5-(5-methyl-1,3,4-oxadiazol-2-yl)-4-(7-((pyridin-4-ylmethyl)amino)thieno[2,3-c]pyridin-2-yl)nicotinamide]
67.3	CC(C)Cc1nc(CCc2ccc(F)cc2)c(-c2ccn(C)n2)c(-c2ccc(C(=O)NCc3ccc(F)c(F)c3)s2)c1C(N)=O [Compound 204, 4-(5-((3,4-difluorobenzyl)carbamoyl)thiophen-2-yl)-6-(4-fluorophenethyl)-2-isobutyl-5-(1-methyl-1H-pyrazol-3-yl)nicotinamide]
